Reference: patent US11358965B2, “EGFR dimer disruptors and use of the same” (THE REGENTS OF THE UNIVERSITY OF MICHIGAN, priority 2018, dated 2022)
Where two headings read alike, the source gives them in different places.

What was measured:
[1] = tested on: PanIn (Pancreatic Intraepithelial Neoplasia); test: Pancreatic tumor model (KC mice), PanIn; type: in vivo; details: oral gavage, 30 mg/kg body weight, daily
Method: 6-week old KC mice were treated with Compound 8C via oral gavage (30 mg/kg body weight, daily).

[2] = Stability in human liver microsomes; type: in vitro ADME
COLO 205 = test: NCI 60 cell line screen, COLO 205; type: cell-based, human; details: Colon Cancer
Method: (§1) The activity of Compound 8C was tested against 60 different human tumor cell lines at the National Cancer Institute, using the standard NCI 60 screening protocol.

HCT-116 = test: NCI 60 cell line screen, HCT-116; type: cell-based, human; details: Colon Cancer
Method: as §1

UMCC92 cells = test: Clonogenic IC50, UMCC92; type: cell-based
UACC-257 = test: NCI 60 cell line screen, UACC-257; type: cell-based, human; details: Melanoma
Method: as §1

[3] = tested on: Ba/F3-AZR cells (L858R+T790M+C797S-EGFR); test: Osimertinib resistant Ba/F3-AZR ascites tumor model; type: in vivo, nude mice; details: single 30 mg/kg dose (Compound 8C i.p., osimertinib oral), 18 days after tumor cells
[4] = biological target: T1, purified wild-type EGFR kinase domain (Homo sapiens, UniProt P00533); test: Thermal stability assay of purified EGFR; type: binding; details: 10 μM
T1 construct: WT-EGFR kinase domain (aa696-1022, active kinase); made in house; host or cells: SF9 insect cells
Method: The samples were subjected to heat inactivation (20 to 44° C.) for 3 minutes. The soluble fraction was separated from aggregate by centrifugation at 13,000 RPM at 4° C. for 10 minutes. […] The EGFR band intensity as quantified by ImageJ software and plotted (see FIG. 5B). […] The soluble fraction of EGFR was quantified and plotted as described above (see FIG. 5C).
After cooling, the samples were centrifuged, and the soluble protein fraction was collected and resolved using immunoblotting with anti-EGFR antibodies (see FIG. 6A).

[5] = tested on: isogenic 6-Ba/F3 cell types (TKI sensitive and resistant); test: Activity in isogenic Ba/F3 cell types
SK-MEL-5 = test: NCI 60 cell line screen, SK-MEL-5; type: cell-based, human; details: Melanoma
Method: as §1

PC9-AZR = test: Clonogenic survival assay, PC9-AZR; type: cell-based; details: read-out: IC50 and IC90
RKO cells = test: Clonogenic IC50, RKO; type: cell-based; details: Homo sapiens
HCC827-AZR = test: Clonogenic survival assay, HCC827-AZR; type: cell-based; details: read-out: IC50 and IC90
K-562 = test: NCI 60 cell line screen, K-562; type: cell-based, human; details: Leukemia
Method: as §1

MCR5 cells = test: Clonogenic IC50, MCR5; type: cell-based; details: MCR5, MCR5
Method: It was determined if the response to Compound 8C correlates with inhibition of EGF-induced dimerization and degradation of EGFR. For this, PC9-AZR cells were treated for 1 hour with 1 μM Compound 8C and an additional 30 minutes with EGF (30 ng/ml) and 30 minutes with disuccinimidyl suberate (DSS, 150 μM) to cross-link interacting proteins. Lysates were prepared and immunoblotted with anti-EGFR antibodies.
The viability of cells upon treatment was assessed by CellTiter-Blue® reagent following the manufacturer's protocol in RKO, UM10B, UM1, MCR5, and UMCC92 cells. Briefly, 10,000 cells were plated in 96-well plate in quadruplets. One day after seeding, cells were treated with a range of concentrations (0.1 to 30 micromolar). 3-days post-treatment, cells were incubated with the CellTiter-Blue® reagent for 4 hr. Only the viable cells convert the redox dye (reszurin) into a fluorescent product (resofurin). The emission of fluorescence (excitation 560 nm) was measured at […]. The IC50 value was calculated as the mean concentration of compounds required to inhibit cell proliferation as measured by the fluorescence at […] by 50 percent compared to the vehicle-treated controls.

UACC-62 = test: NCI 60 cell line screen, UACC-62; type: cell-based, human; details: Melanoma
Method: as §1

[6] = Pharmacokinetics in tumor and plasma, NCI-H1975 xenograft mice; type: in vivo, nude mice; details: for half-life: nude, mouse, ip
Method: The IC50 and IC90 for PC9-AZR, and HCC827-AZR, range from ˜1.5 to ˜4 μM (see FIG. 7A). It is interesting to note that the peak plasma concentration was 5.4±1.5 μM for 30 minutes. […] Prolonged drug accumulation in tumors despite rapid systemic clearance is ideal for therapeutic use. The data at the 24 hour time point indicate that the agent may be suitable for daily administration. After observing selective accumulation of Compound 8C in tumors injected i.p., it was determined if Compound 8C is orally available. For oral administration, Compound 8C was formulated in 20% tween 80 in PBS (v/v) after brief sonication. Mice received 100 mg/kg by oral gavage. The concentrations of Compound 8C in tumor and plasma samples at 7 hours, 15 hours and 24 hours were determined and are plotted in FIG. 8B.
For intraperitoneal injection Compound 8C was formulated at 10 mg/mL in PBS with 5% DMSO by adjusting the pH to 5.5. For oral administration, a homogenous suspension was prepared in 20% tween 80 upon brief sonication. Initially, a single 100 mg/kg dose of Compound 8C was given i.p. (FIG. 8A) or gavaged into nude mice bearing human NCI-H1975 tumor xenografts (>150 mm3) (FIG. 8B). Mice were euthanized at time 0, 30 minutes, 1 hour, 3 hours, 7 hours, 15 hours, and at 24 hours. Tumor and plasma samples were collected. In case of mice orally gavaged, plasma and tumor samples were collected only at 7 hours, 15 hours and at 24 hours. The concentration of Compound 8C in plasma and tumor was determined and the resulting data are plotted in terms of molar concentration.

MCF7 = test: NCI 60 cell line screen, MCF7; type: cell-based, human; details: Breast Cancer
Method: as §1

HL-60(TB) = test: NCI 60 cell line screen, HL-60(TB); type: cell-based, human; details: Leukemia
Method: as §1

UMSCC74B = UMSCC74B xenografts, oral gavage twice weekly; type: in vivo, mouse; details: 30 mg/kg, vs untreated and cetuximab controls
Method: Mouse xenographs of UMSCC74B, a head and neck tumor cell line, were treated with Compound 8C via oral gavage (30 mg/kg body weight, twice weekly).

MDA-MB-231/ATCC = test: NCI 60 cell line screen, MDA-MB-231/ATCC; type: cell-based, human; details: Breast Cancer
Method: as §1

purified EGFR = biological target: T2, purified EGFR (Homo sapiens, UniProt P00533); test: Competition with Biotin-Disruptin for purified EGFR; type: binding; details: 15 minutes at 37° C.
T2 construct: WT-EGFR kinase domain (aa696-1022, active kinase); made in house; host or cells: SF9 insect cells
Method: To determine if Compound 8C competes for the same binding site on EGFR, Biotin-Disruptin-Avidin coupled beads were incubated with purified EGFR in the presence or absence of Compound 8C for 15 minutes at 37° C. The agarose beads were spun down, and the non-specific protein removed by washing in citrate buffer. The bound protein was released in Laemmli buffer and resolved by SDS page.

M14 = test: NCI 60 cell line screen, M14; type: cell-based, human; details: Melanoma
Method: as §1

T2 sequence (P00533 696-1022): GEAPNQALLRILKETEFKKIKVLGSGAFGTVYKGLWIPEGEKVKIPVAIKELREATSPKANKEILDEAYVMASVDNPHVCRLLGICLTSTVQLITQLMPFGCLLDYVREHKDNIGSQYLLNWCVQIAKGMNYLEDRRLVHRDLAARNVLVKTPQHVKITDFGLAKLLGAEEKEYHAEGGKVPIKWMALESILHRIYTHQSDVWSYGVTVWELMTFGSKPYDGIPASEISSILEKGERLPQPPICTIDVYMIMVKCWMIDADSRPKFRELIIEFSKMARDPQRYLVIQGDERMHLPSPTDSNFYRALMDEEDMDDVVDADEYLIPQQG
T1 sequence (P00533 696-1022): as above

SMILES: CN1CCC2(CC1)N=C(SCC(=O)Nc1cnc3ccccc3c1)C(c1ccc(Br)cc1)=N2 [Compound 8C, 2-((3-(4-bromophenyl)-8-methyl-1,4,8-triazaspiro[4.5]deca-1,3-dien-2-yl)thio)-N-(quinolin-3-yl)acetamide]
- propensity for developing PanIn [1]: significantly reduced propensity
- stability compared to pre lead (C95) [2]: approximately 20 times
- Percent Growth (COLO 205): −76.2%
- Percent Growth (HCT-116): −90.7%
- IC50 (UMCC92 cells): 0.2 µM
- Percent Growth (UACC-257): −61.2%
- survival [3]: prolonged life
- effect on melting curve / melting temperature of purified WT-EGFR [4]: shifts the melting curve
- activity in each Ba/F3 cell line [5]: active in the nanomolar range
- Percent Growth (SK-MEL-5): −96.2%
- IC50 (PC9-AZR): 1500 to 4000 nM
- IC50 (RKO cells): 1.6 µM
- IC50 (HCC827-AZR): 1500 to 4000 nM
- Percent Growth (K-562): −61.5%
- IC50 (MCR5 cells): 18.6 µM
- Percent Growth (UACC-62): −78.9%
- peak plasma concentration ([6]; 100 mg/kg i.p., single dose, for 30 minutes): 5.4 ± 1.5 µM
- peak concentration achieved in the tumor ([6]; 100 mg/kg i.p., single dose, for ≥7 hours): 69.7 ± 15.68 µM
- tumor accumulation ([6]; i.p. injection): selectively accumulates in the tumor
- half-life ([6]; plasma, 100 mg/kg i.p., single dose, read-out: plasma half-life (converted)): 7.96 h
- half-life ([6]; tumor, 100 mg/kg i.p., single dose, read-out: half-life in the tumor): > 24 h
- Percent Growth (MCF7): −42.7%
- Percent Growth (HL-60(TB)): −40.7%
- tumor volume (UMSCC74B): significantly reduced tumor volume
- Percent Growth (MDA-MB-231/ATCC): −40.5%
- inhibition of Disruptin-EGFR binding (purified EGFR): Competitive inhibition
- Percent Growth (M14): −83.8%
